From patent US20120121508A1, “RADIOLABELED CGRP ANTAGONISTS” (Merck Sharp & Dohme Corp., priority 2009, published 2012)
“And” between values parts separate entries of the source, which are not always exact repeats. Equal values may be shown once.

What was measured:
[1] = target: T1, human CGRP receptor (CL receptor/RAMP1) (Homo sapiens, UniProt O60894+Q16602); experiment: Recombinant receptor binding assay vs [^125I]CGRP
T1 construct: expressed in transfected cells
Method: RECOMBINANT RECEPTOR: Human CL receptor (Genbank accession number L76380) was subcloned into the expression vector pIREShyg2 (BD Biosciences Clontech) as a 5′NheI and 3′ PmeI fragment. Human RAMP1 (Genbank accession number AJ001014) was subcloned into the expression vector pIRESpuro2 (BD Biosciences Clontech) as a 5′NheI and 3′NotI fragment. HEK 293 cells (human embryonic kidney cells; ATCC #CRL-1573) were cultured in DMEM with 4.5 g/L glucose, 1 mM sodium pyruvate and 2 mM glutamine supplemented with 10% fetal bovine serum (FBS), 100 units/mL penicillin and 100 μg/mL streptomycin, and maintained at 37° C. and 95% humidity. Cells were subcultured by treatment with 0.25% trypsin with 0.1% EDTA in HBSS. Stable cell line generation was accomplished by co-transfecting 10 μg of DNA with 30 μg Lipofectamine 2000 (Invitrogen) in 75 cm^2 flasks. CL receptor and RAMP1 expression constructs were co-transfected in equal amounts. Twenty-four hours after transfection the cells were diluted and selective medium (growth medium+300 μg/mL hygromycin and 1 μg/mL puromycin) was added the following day. […]
(§1) The octanol/water partition coefficient (Log P) of the compound of Example 1 was determined by partitioning the compound between octanol and phosphate buffer at pH 7.4 and measuring the concentration of the compound in each layer by LC-MS/MS. […]

[2] = target: T1, human CGRP receptor (CL receptor/RAMP1); experiment: Recombinant receptor cAMP functional assay; type: cell-based; settings: in the presence of 50% human serum
Method: RECOMBINANT RECEPTOR: Human CL receptor (Genbank accession number L76380) was subcloned into the expression vector pIREShyg2 (BD Biosciences Clontech) as a 5′NheI and 3′ PmeI fragment. Human RAMP1 (Genbank accession number AJ001014) was subcloned into the expression vector pIRESpuro2 (BD Biosciences Clontech) as a 5′NheI and 3′NotI fragment. HEK 293 cells (human embryonic kidney cells; ATCC #CRL-1573) were cultured in DMEM with 4.5 g/L glucose, 1 mM sodium pyruvate and 2 mM glutamine supplemented with 10% fetal bovine serum (FBS), 100 units/mL penicillin and 100 μg/mL streptomycin, and maintained at 37° C. and 95% humidity. Cells were subcultured by treatment with 0.25% trypsin with 0.1% EDTA in HBSS. […]
RECOMBINANT RECEPTOR FUNCTIONAL ASSAY: Cells were plated in complete growth medium at 85,000 cells/well in 96-well poly-D-lysine coated plates (Corning) and cultured for ˜19 h before assay. […] Dose response curves were plotted and IC50 values determined from a 4-parameter logistic fit as defined by the equation y=((a−d)/(1+(x/c)^b)+d, where y=response, x=dose, a=max response, d=min response, c=inflection point and b=slope.
as §1

[3] = target: adrenomedullin 2 receptor, CLR-RAMP3 (Homo sapiens, UniProt O60896+Q16602); experiment: Adrenomedullin 2 receptor binding (selectivity)
Method: (§2) The octanol/water partition coefficient (Log P) of the compound of Example 1 was determined by partitioning the compound between octanol and phosphate buffer at pH 7.4 and measuring the concentration of the compound in each layer by LC-MS/MS. […] The compound of Example 1 was tested in the receptor binding and functional cell-based assays carried out in the presence and absence of human serum.

[4] = target: human AMY1 receptor (CTR/RAMP1) (Homo sapiens, UniProt O60894+P30988); experiment: Amylin 1 receptor binding
Method: (§3) The compound of Example 1 was evaluated against the related amylin 1 (AMY1; CTR/RAMP1) and amylin 3 (AMY3; CTR/RAMP3) receptors. […] Although the compound of Example 1 binds with high affinity to the related AMY1 receptor, this is not anticipated to negatively impact the utility of this molecule as a suitable PET tracer. […] Since the methods used to quantify CGRP receptor occupancy rely primarily on the cerebellar region, the affinity of the compound of Example 1 for AMY1 receptor should not interfere with the use of the PET tracer to accurately determine CGRP receptor occupancy.

[5] = target: T2, human AMY3 receptor (CTR/RAMP3) (Homo sapiens, UniProt O60896+P30988); experiment: Amylin 3 receptor binding
T2 sequence (P30988 25-474): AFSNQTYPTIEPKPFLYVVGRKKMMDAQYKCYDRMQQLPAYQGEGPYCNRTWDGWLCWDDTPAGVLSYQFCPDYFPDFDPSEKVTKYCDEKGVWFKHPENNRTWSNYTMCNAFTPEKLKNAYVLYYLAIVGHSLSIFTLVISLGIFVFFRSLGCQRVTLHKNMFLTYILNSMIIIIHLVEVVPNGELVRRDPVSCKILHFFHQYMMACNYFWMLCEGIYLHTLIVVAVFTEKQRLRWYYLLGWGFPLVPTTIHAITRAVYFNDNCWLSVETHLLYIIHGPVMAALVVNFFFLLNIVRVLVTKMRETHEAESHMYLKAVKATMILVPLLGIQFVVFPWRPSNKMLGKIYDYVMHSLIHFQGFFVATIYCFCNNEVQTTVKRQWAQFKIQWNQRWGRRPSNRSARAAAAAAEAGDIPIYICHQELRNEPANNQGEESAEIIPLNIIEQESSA
T2 sequence (O60896 24-148): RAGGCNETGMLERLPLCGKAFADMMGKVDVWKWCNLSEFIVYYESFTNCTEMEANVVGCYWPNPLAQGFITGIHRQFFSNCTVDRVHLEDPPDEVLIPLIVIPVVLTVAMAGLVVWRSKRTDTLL
Method: as §3

[6] = Octanol/water partition coefficient (Log P); type: physicochemical; settings: octanol / phosphate buffer pH 7.4, LC-MS/MS
Method: as §2

[7] = target: T3, human P-glycoprotein (Homo sapiens, UniProt P08183); experiment: Bidirectional transport across LLC-PK1 monolayers, human P-gp; type: in vitro ADME
T3 construct: expressed in transfected cells; host or cells: LLC-PK1
Method: (§4) The bidirectional transport of the compound of Example 1 was evaluated across mono-layers of LLC-PK1 cells over-expressing human P-glycoprotein (Ohe et al., 2003).

[8] = target: T4, human P-glycoprotein (P-gp) (Homo sapiens, UniProt P08183); experiment: as above; type: in vitro ADME; settings: LLC-PK1, human P-gp, read-out: B−A/A−B ratio
T4 construct: expressed in transfected cells; host or cells: LLC-PK1
Method: as §4

[9] = tested on: rat P-gp; experiment: Bidirectional transport, rat P-gp; type: in vitro ADME
Method: [The source words this procedure for another species and reports this species under the same test.] as §4

[10] = tested on: African green monkey P-gp; experiment: Bidirectional transport, African green monkey P-gp; type: in vitro ADME
[11] = Passive permeability (Papp); type: in vitro ADME; settings: pig, LLC-PK1, read-out: average apparent permeability coefficient (Papp)
Method: as §4

[12] = tested on: CGRP receptor; experiment: PET CGRP receptor occupancy study in rhesus monkey brain; type: in vivo; settings: IV bolus plus constant infusion, Hill equation fit, ±SE
Method: Baseline PET scans in rhesus monkey have confirmed the uptake and expected regional distribution of the PET tracer of [^11C]-Example 1 in the brain. […] In vivo occupancy studies were carried out with the compound of Example 1 to examine the utility of the PET tracer of [^11C]-Example 1 to establish a drug plasma level/CGRP receptor occupancy relationship. To establish steady plasma levels of drug, the compound of Example 1 was administered as an IV bolus plus constant infusion starting 60 minutes before the PET tracer of [^11C]-Example 1 injection; drug infusion was continued for the duration of the scan. Dynamic PET studies were acquired for 120-min following the PET tracer of [^11C]-Example 1 IV bolus administration. CGRP receptor availability was estimated using data-driven methods to describe the PET tracer of [^11C]-Example 1 plasma-brain kinetics. For each study, the PET tracer of [^11C]-Example 1 plasma concentration was obtained from the measurement of total radioactivity in arterial plasma with correction for the fraction of intact tracer as determined by HPLC analysis.
The absence of a reference region (devoid of CGRP receptor) requires the application of tracer kinetic modeling techniques using the PET tracer of [^11C]-Example 1 arterial plasma concentration in order to accurately quantify CGRP receptor occupancy in rhesus monkey. […]

T4 sequence (P08183 whole entry): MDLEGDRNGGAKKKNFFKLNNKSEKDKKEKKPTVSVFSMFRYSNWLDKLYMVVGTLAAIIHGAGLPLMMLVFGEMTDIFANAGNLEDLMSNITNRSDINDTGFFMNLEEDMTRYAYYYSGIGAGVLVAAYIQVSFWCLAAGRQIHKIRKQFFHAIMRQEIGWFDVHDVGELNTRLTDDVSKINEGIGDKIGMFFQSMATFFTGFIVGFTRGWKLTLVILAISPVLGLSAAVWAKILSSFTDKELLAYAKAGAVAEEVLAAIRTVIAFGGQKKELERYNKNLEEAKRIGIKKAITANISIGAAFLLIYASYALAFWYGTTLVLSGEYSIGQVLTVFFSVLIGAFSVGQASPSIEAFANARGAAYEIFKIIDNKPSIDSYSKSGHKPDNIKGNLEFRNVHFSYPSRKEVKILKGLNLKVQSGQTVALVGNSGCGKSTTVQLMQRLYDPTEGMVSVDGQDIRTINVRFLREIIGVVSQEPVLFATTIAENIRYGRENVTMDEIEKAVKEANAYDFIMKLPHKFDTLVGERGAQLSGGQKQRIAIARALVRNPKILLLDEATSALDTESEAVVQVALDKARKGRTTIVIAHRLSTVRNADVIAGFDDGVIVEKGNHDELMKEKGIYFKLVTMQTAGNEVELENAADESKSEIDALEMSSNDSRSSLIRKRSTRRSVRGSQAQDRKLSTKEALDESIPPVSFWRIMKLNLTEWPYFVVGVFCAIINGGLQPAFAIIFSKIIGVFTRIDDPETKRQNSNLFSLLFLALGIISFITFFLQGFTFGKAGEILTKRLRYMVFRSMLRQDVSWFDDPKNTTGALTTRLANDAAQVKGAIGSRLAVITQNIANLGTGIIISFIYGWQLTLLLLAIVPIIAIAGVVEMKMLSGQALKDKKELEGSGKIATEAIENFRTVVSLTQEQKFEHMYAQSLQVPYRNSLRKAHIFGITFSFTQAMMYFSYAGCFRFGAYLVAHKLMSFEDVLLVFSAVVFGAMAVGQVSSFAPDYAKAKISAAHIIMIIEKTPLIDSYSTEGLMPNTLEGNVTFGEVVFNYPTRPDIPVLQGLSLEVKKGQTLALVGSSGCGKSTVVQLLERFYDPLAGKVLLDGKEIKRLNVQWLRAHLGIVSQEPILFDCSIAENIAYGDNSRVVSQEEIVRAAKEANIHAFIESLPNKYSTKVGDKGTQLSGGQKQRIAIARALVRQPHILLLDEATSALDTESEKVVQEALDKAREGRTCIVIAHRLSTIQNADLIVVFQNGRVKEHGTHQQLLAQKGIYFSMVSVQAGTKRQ
T1 sequence (Q16602 23-461): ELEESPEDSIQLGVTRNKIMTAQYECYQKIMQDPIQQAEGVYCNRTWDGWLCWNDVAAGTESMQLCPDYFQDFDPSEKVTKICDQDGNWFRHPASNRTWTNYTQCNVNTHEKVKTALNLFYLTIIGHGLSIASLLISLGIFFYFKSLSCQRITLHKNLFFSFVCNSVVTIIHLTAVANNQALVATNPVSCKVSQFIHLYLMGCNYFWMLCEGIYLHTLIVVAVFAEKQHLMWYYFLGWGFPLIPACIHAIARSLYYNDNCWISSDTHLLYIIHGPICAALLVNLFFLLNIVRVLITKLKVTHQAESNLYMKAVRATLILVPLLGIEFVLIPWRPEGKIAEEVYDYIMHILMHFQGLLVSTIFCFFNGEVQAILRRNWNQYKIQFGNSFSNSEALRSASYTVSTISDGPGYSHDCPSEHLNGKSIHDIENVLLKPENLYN
T1 sequence (O60894 27-148): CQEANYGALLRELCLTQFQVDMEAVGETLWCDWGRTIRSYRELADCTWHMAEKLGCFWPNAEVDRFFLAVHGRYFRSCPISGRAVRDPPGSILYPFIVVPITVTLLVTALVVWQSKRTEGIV
T3 sequence (P08183 whole entry): as the sequence (P08183 whole entry) above
human AMY1 receptor (CTR/RAMP1), sequence (O60894 27-148, one chain of several): as the sequence (O60894 27-148) above
adrenomedullin 2 receptor, CLR-RAMP3, sequence (Q16602 23-461, one chain of several): as the sequence (Q16602 23-461) above

Ki [1]: 0.039 nM
IC50 [2]: 0.21 nM
Ki [3]: 211 nM
Ki [4]: 0.6 nM
Ki [5]: 212 nM
logP [6]: 3.38
P-gp substrate status ([7]; human P-gp, 5 μM): not a substrate
P-gp substrate status ([7]; human P-gp, 1, 0.5 and 0.1 μM): weak substrate
efflux ratio at 0.1 μM ([8]; 0.1 μM): 3.5
efflux ratio at 0.5 μM ([8]; 0.5 μM): 2.9
efflux ratio at 1 μM ([8]; 1 μM): 3
efflux ratio at 5 μM ([8]; 5 μM): 1.7
P-gp substrate status ([9]; 5 μM): borderline substrate
efflux ratio at 5 μM ([9]; LLC-PK1, read-out: B−A/A−B ratio): 3.1
P-gp substrate status ([10]; African green monkey P-gp, 1, 0.5 and 0.1 μM): weak substrate
efflux ratio at 0.1 μM ([10]; LLC-PK1, African green monkey P-gp, 0.1 μM, read-out: B−A/A−B ratio): 5.4
efflux ratio at 0.5 μM ([10]; LLC-PK1, African green monkey P-gp, 0.5 μM, read-out: B−A/A−B ratio): 4.1
efflux ratio at 1 μM ([10]; LLC-PK1, African green monkey P-gp, 1 μM, read-out: B−A/A−B ratio): 3.9
Papp [11]: 26 ×10⁻⁶ cm/s
Compound: CN1C[C@@](C)(c2cc(F)cc(F)c2)N(CC(=O)Nc2ccc3c(c2)C[C@@]2(C3)C(=O)Nc3ncccc32)C(=O)C12CCCC2 [Example 1, 2-[(8R)-8-(3,5-Difluorophenyl)-6,8-dimethyl-10-oxo-6,9-diazaspiro[4.5]dec-9-yl]-N-[(2R)-2′-oxo-1,1′,2′,3-tetrahydrospiro[indene-2,3′-pyrrolo[2,3-b]pyridin]-5-yl]acetamide]
Occ50: plasma level for 50% CGRP receptor occupancy [12]: ~11 nM and 11 ± 3 nM
